Drawing on article PMC3101270 (Biochemistry, 2011), this text covers Kd and Ki for two compounds.

Assay [1] addresses T1, PfOPRT (Plasmodium falciparum, UniProt Q8N0R1).
T1 sequence (Q8N0R1 1-281): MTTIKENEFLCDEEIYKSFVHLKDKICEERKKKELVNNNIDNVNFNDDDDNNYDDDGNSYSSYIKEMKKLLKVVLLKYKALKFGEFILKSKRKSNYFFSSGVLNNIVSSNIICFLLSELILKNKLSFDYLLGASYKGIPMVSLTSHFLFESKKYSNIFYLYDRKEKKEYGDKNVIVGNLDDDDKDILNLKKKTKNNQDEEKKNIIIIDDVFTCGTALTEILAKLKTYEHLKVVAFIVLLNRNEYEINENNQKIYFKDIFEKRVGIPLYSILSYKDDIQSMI
As to the kind of experiment: ultrafiltration with 3H/[…]-labelled ligand. The assay is classed as binding.

The target in assay [2] is T2, HsOPRT (Homo sapiens, UniProt P11172).
T2 sequence (P11172 2-214 limits assumed): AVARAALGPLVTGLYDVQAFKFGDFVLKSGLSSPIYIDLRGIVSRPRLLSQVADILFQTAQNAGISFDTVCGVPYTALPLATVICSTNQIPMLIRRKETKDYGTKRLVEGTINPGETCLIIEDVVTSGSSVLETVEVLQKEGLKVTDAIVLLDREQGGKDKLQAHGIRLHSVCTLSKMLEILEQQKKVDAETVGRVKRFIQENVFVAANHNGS
As to the kind of experiment: ultrafiltration with 3H/[…]-labelled ligand. The assay is classed as binding.

Assay [3] has as its target T1, PfOPRT. As to the kind of experiment: enzyme inhibition. The assay is classed as biochemical.
For assay [4], the target named is T2, HsOPRT. In words: enzyme inhibition. The assay is classed as biochemical.

`O=C(O)c1cc(=O)[nH]c(=O)n1[C@@H]1O[C@H](COP(=O)(O)O)[C@@H](O)[C@H]1O` [OMP]: the Kd (commonly a measure of binding affinity in units of concentration) was found to be 3.1 ± 1.6 µM at PfOPRT [1] and 2.5 ± 1.2 µM on HsOPRT [2].

For the compound `O=S(=O)(O)O` [sulfate], the values for the inhibition constant (Ki) on PfOPRT [3] and on HsOPRT [4] were 3100 ± 300 µM and 17600 ± 2800 µM, respectively.
